Measured values: patent publication US20070010670A1, “Nitrogen-containing fused ring compounds and use thereof” (Japan Tobacco Inc., priority 2004, published 2007)

How the values were obtained:
[1] = target: T1, CYP2C9 (Homo sapiens, UniProt P11712); experiment: CYP inhibitory test using human liver microsome; format: in vitro ADME; conditions: model substrate diclofenac, 37° C. 10 min, read-out: CYP2C9 inhibition IC50
T1 construct: Human liver microsome (20 mg protein/mL, 5 μL, Xenotech LLC, purchased from Lenexa KS); tissue Xenotech LLC; host or cells: human liver microsome
T1 sequence (P11712 whole entry): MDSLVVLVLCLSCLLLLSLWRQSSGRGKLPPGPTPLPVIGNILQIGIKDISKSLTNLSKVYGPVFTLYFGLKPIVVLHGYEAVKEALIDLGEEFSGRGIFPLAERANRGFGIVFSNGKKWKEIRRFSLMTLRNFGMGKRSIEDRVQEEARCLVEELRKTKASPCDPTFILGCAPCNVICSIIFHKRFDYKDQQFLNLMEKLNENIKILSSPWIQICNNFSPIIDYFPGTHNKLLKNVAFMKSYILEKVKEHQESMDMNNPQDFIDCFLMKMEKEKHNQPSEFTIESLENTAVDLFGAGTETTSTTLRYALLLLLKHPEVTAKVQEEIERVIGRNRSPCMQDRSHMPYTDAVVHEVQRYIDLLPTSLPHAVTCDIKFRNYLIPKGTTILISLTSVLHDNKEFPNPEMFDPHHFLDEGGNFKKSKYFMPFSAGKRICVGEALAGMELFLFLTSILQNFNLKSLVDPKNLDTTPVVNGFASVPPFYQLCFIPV
Outline: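 Pooled human liver microsomes in 100 mM potassium phosphate pH 7.4 with NADPH-regenerating system, preincubated with compound 5 min at 37 °C; diclofenac as CYP2C9 substrate (2 mM stock), 10 min at 37 °C. Metabolite quantified by LC/MS/MS; IC50 relative to DMSO-only activity as 100%.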

[2] = target: T2, URAT1 (Homo sapiens, UniProt Q96S37); experiment: Uric acid transport inhibitory test using human URAT1-expressing cells; format: cell-based; parameters: Human URAT1 full length cDNA was subcloned to expression vector pcDNA3.1; expressed in transfected cells; host or cells: HEK293 cells (pcDNA3.1, geneticin-selected); conditions: human URAT1 expressing HEK293 cells, 14C-labeled uric acid uptake 5 min, room temperature; read-out: hURAT1 (IC50, concentration necessary for inhibiting the uric acid transport rate by 50%)
T2 sequence (Q96S37 1-553): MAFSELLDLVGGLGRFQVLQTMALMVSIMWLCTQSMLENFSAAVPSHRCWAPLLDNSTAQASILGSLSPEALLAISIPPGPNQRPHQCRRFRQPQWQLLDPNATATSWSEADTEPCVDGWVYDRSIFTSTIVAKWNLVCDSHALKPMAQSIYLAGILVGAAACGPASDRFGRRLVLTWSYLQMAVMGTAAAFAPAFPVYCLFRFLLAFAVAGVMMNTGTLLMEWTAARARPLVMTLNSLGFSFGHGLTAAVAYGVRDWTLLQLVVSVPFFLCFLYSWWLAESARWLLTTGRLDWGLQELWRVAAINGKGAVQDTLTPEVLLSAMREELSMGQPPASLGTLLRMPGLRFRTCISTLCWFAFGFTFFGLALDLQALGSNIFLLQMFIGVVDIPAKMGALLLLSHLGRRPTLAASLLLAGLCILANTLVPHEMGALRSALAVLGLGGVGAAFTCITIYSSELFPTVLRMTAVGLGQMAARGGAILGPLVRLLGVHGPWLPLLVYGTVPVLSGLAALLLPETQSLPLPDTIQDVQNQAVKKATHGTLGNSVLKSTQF
Source text: Human URAT1 full length cDNA was subcloned to expression vector pcDNA3.1 and human URAT1 gene was transfected into human embryonic kidney derived cell line (HEK293 cells) by liposome method using Lipofectamine2000. Simultaneously, HEK293 cells transfected with expression vector pcDNA3.1 alone (hereinafter mock cells) were also produced. HEK293 cells expressing human URAT1 gene or mock cells were selected with geneticin resistance as an index. The functional expression of human URAT1 gene was confirmed by a method similar to the following method, using transport of uric acid labeled with ^14C into the cells as an index.
Human URAT1 expressing HEK293 cells or mock cells were cultured in Dulbecco's modified Eagle's MEM medium (high glucose) containing 10% fetal bovine serum, 0.5 mg/mL geneticin sulfate, 100 units/mL penicillin and 100 μg/mL streptomycin under the conditions of 37° C. and 5% CO2 in an incubator. The cells were plated in a 96 well plate (poly-D-Lysine coated) at 1×10^5 cells/well and the following uric acid transport inhibitory test was performed 24 hr later. This test was performed at room temperature.
After the medium was removed by aspiration from each well, the cells were washed once with Hank's Balanced Salt Solution (HBSS) and preincubated with HBSS ([…]) for 5 min. HBSS was aspirated and an assay buffer (wherein NaCl in the above-mentioned HBSS had been substituted with Na-gluconate) containing various concentrations of the Example compound and a radioactive ligand (uric acid labeled with 14C; final concentration […]) was added to each well at […] and an uptake reaction was carried out for 5 min. After the reaction, the cells were washed twice with ice-cold HBSS ([…]), and Microscin ti TM 20 (PerkinElmer) was added at […]. The cells were lysed by stirring and the radioactivity of each well was measured in a liquid scintillation counter (TOP COUNT, Packard).
The uric acid transport rate (%) of the Example compound at each concentration was calculated relative to the radioactivity (difference in radioactivity between human URAT1 expressing HEK293 cells and mock cells without addition of Example compound (DMSO addition)) showing URAT1 specific uric acid transport as 100%, and the concentration (IC50) of the Example compound necessary for inhibiting the uric acid transport rate by 50% was determined. In Table-Table , “+++” means IC50 value of less than 100 nM, “++” means IC50 value of 100 nM to less than 1000 nM, and “+” means IC50 value of 1000 nM to less than 3000 nM.

[3] = target: T2, URAT1; parameters: host or cells: Xenopus laevis oocyte expression system; conditions: Xenopus laevis oocyte expression system; cited from earlier work
[4] = target: T3, CYP2C8 (Homo sapiens, UniProt P10632); conditions: cited from earlier work
T3 sequence (P10632 1-490): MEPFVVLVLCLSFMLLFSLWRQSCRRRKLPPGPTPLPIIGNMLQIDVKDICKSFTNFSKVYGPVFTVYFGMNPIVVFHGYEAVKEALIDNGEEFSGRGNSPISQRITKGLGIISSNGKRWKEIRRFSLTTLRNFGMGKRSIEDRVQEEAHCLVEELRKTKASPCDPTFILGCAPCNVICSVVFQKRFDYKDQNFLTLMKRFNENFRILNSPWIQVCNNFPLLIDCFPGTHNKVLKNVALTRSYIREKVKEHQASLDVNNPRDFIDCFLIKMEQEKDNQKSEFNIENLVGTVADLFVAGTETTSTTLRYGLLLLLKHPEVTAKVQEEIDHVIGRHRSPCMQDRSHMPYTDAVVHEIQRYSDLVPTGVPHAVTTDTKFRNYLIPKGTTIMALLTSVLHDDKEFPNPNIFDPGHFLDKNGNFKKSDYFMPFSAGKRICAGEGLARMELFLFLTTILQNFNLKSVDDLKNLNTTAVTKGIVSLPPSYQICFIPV

[5] = target: CYP2C19 (Homo sapiens, UniProt P33261); conditions: cited from earlier work
Chain of CYP2C19 (P33261 whole entry): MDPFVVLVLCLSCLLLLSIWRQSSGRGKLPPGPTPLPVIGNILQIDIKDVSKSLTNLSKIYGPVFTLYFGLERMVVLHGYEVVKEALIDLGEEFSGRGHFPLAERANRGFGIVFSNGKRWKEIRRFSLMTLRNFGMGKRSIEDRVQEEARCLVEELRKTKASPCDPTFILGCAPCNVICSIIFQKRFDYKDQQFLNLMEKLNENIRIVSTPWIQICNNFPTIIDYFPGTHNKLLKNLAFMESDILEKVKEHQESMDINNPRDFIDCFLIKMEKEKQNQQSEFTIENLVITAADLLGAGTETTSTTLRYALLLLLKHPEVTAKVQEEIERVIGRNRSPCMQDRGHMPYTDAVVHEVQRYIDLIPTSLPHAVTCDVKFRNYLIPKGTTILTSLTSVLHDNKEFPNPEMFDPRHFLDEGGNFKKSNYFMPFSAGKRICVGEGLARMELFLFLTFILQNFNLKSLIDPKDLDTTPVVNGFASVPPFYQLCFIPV

[6] = target: CYP3A4 (Homo sapiens, UniProt P08684); conditions: cited from earlier work
Chain of CYP3A4 (P08684 whole entry): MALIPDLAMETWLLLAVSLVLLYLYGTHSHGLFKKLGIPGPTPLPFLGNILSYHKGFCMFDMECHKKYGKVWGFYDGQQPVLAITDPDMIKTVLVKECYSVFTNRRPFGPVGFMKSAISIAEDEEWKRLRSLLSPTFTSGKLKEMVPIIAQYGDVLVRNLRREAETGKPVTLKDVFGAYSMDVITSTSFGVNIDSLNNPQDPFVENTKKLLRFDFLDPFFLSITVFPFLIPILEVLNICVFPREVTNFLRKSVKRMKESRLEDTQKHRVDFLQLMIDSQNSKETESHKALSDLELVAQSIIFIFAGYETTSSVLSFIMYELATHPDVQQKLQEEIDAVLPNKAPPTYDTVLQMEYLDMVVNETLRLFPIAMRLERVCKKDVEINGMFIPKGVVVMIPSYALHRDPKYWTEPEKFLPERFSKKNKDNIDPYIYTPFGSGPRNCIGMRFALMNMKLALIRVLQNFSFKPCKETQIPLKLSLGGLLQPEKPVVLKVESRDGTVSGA

IC50 [1] [µM]	IC50 [2] [nM]	SMILES	uric acid uptake via URAT1 [3]	inhibitory action on CYP2C8 [4]	inhibitory action on CYP2C19 [5]	inhibitory action on CYP3A4 [6]
> 50	100 to 1000	CC1COc2ccccc2N1C(=O)c1cc(Cl)c(O)c(Cl)c1 (stereo not drawn) [Example 93, (3,5-dichloro-4-hydroxyphenyl)-(3-methyl-2,3-dihydrobenzo[1,4]oxazin-4-yl)-methanone]				
6	100 to 1000	CS(=O)(=O)Nc1c(Cl)cc(C(=O)N2CCOc3ccccc32)cc1Cl [Example 94, N-[2,6-dichloro-4-(2,3-dihydrobenzo[1,4]oxazine-4-carbonyl)phenyl]methanesulfonamide]				
24	100 to 1000	Nc1c(Cl)cc(C(=O)N2CCOc3ccccc32)cc1Cl [Example 28, (4-amino-3,5-dichlorophenyl)-(2,3-dihydrobenzo[1,4]oxazin-4-yl)-methanone]				
39	1000 to 3000	O=C(c1cc(Cl)c(O)c(Cl)c1)N1CC[S+]([O-])c2ccccc21 (stereo not drawn) [Example 9, (3,5-dichloro-4-hydroxyphenyl)-(1-oxo-2,3-dihydro-1H-1λ^4-benzo[1,4]thiazin-4-yl)-methanone]				

Second part, the compound before the results:

SMILES	IC50 [1] [µM]	IC50 [2] [nM]	uric acid uptake via URAT1 [3]	inhibitory action on CYP2C8 [4]	inhibitory action on CYP2C19 [5]	inhibitory action on CYP3A4 [6]
CCCN(CCC)S(=O)(=O)c1ccc(C(=O)O)cc1 [probenecid]			inhibited			
CC1Cc2ccccc2N1C(=O)c1cc(Cl)c(O)c(Cl)c1 (stereo not drawn) [Example 76, (3,5-dichloro-4-hydroxyphenyl)-(2-methyl-2,3-dihydroindol-1-yl)-methanone]	28	100 to 1000				
CCc1oc2ccccc2c1C(=O)c1cc(Br)c(O)c(Br)c1 [benzbromarone]			inhibited	strong inhibitory action	strong inhibitory action	strong inhibitory action
